This note sets out measurements from the NIST ThermoML archive (doi:10.1016/j.jct.2012.03.020).

Numbers after ± are expanded uncertainties.

Data set [1] is described as follows: refractive index (Na D-line) (dimensionless). The note with it: 101.33 kPa, Liquid, Standard Abbe refractometry.
The conditions of data set [2]: for mass density: 101.33 kPa, Liquid, Pycnometric method; for Normal melting temperature: Crystal, visual observation.

As for `Cc1ccc(C(=O)N(O)c2ccccc2)cc1[N+](=O)[O-]` [N-hydroxy-4-methyl-3-nitro-N-phenylbenzamide], the refractive index in data set [1] (298.15 K) is 1.4371 ± 0.0004; in data set [1] (303.15 K) it was 1.4336 ± 0.0004; in data set [1] (308.15 K) it was 1.4302 ± 0.0004; in data set [1] (313.15 K), 1.4286 ± 0.0004. The mass density in data set [2] (298.15 K) was 1437 ± 0.9 kg/m3; in data set [2] (303.15 K), 1433.5 ± 0.9 kg/m3; in data set [2] (308.15 K) it was 1430.2 ± 0.9 kg/m3; in data set [2] (313.15 K), 1428.5 ± 0.9 kg/m3. Besides, in data set [2], the Normal melting temperature was found to be 117.00 ± 2 °C.
Regarding `O=C(c1ccc([N+](=O)[O-])cc1)N(O)c1ccccc1` [N-hydroxy-4-nitro-N-phenylbenzamide], the Normal melting temperature in data set [2] came to 168.00 ± 2 °C.
On to `O=C(c1ccccc1)N(O)c1ccccc1` [N-phenylbenzohydroxamic acid], for which the refractive index in data set [1] (298.15 K) worked out at 1.4269 ± 0.0004; in data set [1] (303.15 K), 1.4257 ± 0.0004; in data set [1] (308.15 K), 1.4241 ± 0.0004; in data set [1] (313.15 K), 1.4221 ± 0.0004. Besides, the mass density is on record as 945.8 ± 0.6 kg/m3 in data set [2] (298.15 K), 940.4 ± 0.6 kg/m3 in data set [2] (303.15 K), 936.3 ± 0.6 kg/m3 in data set [2] (308.15 K) and 931.2 ± 0.6 kg/m3 in data set [2] (313.15 K). Also, the Normal melting temperature in data set [2] was found to be 121.00 ± 2 °C.
`CN(C)C=O` [dimethylformamide]: the refractive index in data set [1] (298.15 K) worked out at 1.427 ± 0.0004; in data set [1] (303.15 K) it was 1.4253 ± 0.0004; in data set [1] (308.15 K), 1.423 ± 0.0004; in data set [1] (313.15 K) it was 1.421 ± 0.0004. Further, the mass density in data set [2] (298.15 K) is on record as 945.2 ± 0.9 kg/m3; in data set [2] (303.15 K) it was 939.7 ± 0.8 kg/m3; in data set [2] (308.15 K), 935.6 ± 0.8 kg/m3; in data set [2] (313.15 K) it was 930.2 ± 0.9 kg/m3.
